Consider nine molecules from patent US6562332B2, “Attractants of beneficial insects” (Iowa State University Research Foundation, Inc., priority 1999, dated 2003).

SMILES strings stand for the structures. Entries after “also recorded” stand apart in the source; their conditions may differ.

Experiment [1] relates to antennae of Coleomegilla maculata. Nature of the experiment: Electroantennogram (EAG) responses of Coleomegilla maculata antennae. Conditions: for EAG response: C. maculata antennae, both sexes; for dose eliciting significant EAG responses from female antennae: C. maculata female antennae; for dose eliciting significant EAG responses from female antennae / EAG response threshold of female antennae / dose at which EAG of male antennae reached saturation: dose-response; for dose at which EAG saturation occurred / minimum dose for a significant EAG response: both male and female antennae; for EAG response threshold of female antennae: C. maculata female antennae versus male. How it is done:
Adults of both sexes were anesthetized by placing them at −20° C., then the abdomen and elytra of adults were cut off with a pair of fine scissors. Dissecting tools were rinsed with acetone several times between dissections to avoid cross-contamination. The dissected parts were extracted in a 1-ml vial containing 500 μl of hexane for two hours. Ten males and females were dissected and extracted. The extracts were concentrated to 200 μl under a mild stream of N2. Approximately 20 μl of the extracts, equivalent to one adult, was used for the EAG tests.
(§1) Both sexes of C. maculata were handled vigorously, and pressed against a piece of filter paper (Whatman, No. 1), resulting in reflex bleeding production of orange colored fluid excreted through the joints of the legs, that was absorbed into the filter paper. Fluids from 20 beetles were collected. The filter paper used for the collection was then cut into small pieces and placed in a 2-ml vial and extracted with 200 μl of hexane for one hour. A volume of 10 μl of the concentrated extract was used for EAG tests.
(§2) Corn (Pioneer, Hybrid 3489) was grown in the greenhouse under approx. 25° C. and 75% humidity, with natural light supplemented by 400 Watt high pressure sodium lights. The three-leaf stage of plants was used for volatile collections, because this life stage is infested by corn leaf aphids (Bing, J. W., et al., 1992, J. Econ. Entomol.21:223-234) and it is also a stage searched by these predatory species. Corn leaves were removed from plants, and ca. 15 g placed in a 0.5-1 glass collector with two openings on each side. A stream of purified air passing through a freshly activated charcoal filter was blown into the inlet of the collector, through the corn leaves, then exited through the outlet connected to a Tenax trap. The trap consisted of a Pasteur pipette (5 cm long and 0.5 cm diameter) packed with 300 mg of Tenax (20-35 mesh, Alltech, Ill.). The flow rate of the air was 150 ml/min from the outlet of the Tenax trap, and the volatiles were collected for 18 hours. The trapped volatiles were eluted with HPLC-grade hexane. The extracts from three collections were combined and concentrated to 100 μl. Ten microliters of extracts were used for each EAG test.
(§3) Dried seeds and flowers of catnip, Nepeta cataria, were purchased from a local pet store. For EAG tests, approx. 0.2 mg of dried plant material was homogenized, then extracted by adding 500 μl of hexane. The extract was poured through a funnel with filter paper (Whatman No.1), and the residue was discarded. The extract was concentrated to 100 μl, under a mild stream of N2. The extract was then stored at −20° C. until used in EAG tests.
EAG recordings were made by connecting an electrogel-filled (Spectro 360, Parker Laboratory, New Jersey) glass-pipette Ag/AgCl electrode to the head of an excised beetle or lacewing. A recording electrode filled with the same electrogel connected to a high-impedance DC amplifier with automatic baseline drift compensation, was placed in contact with the tip of their antennae (intact). Antennal responses to various chemical stimuli were first recorded for a series of commercial synthetic compounds representing known corn leaf volatiles. Then, male and female body extracts of C. maculata, reflex bleeding extracts, aphid alarm pheromone and catnip extracts were tested. A second series of EAG tests was then conducted including dose-response series using selected EAG-active compounds from the first test. Serial dilutions of the tested compounds were made in redistilled HPLC-grade hexane at dosages ranging from 0.1 μg to 1000 μg, except α-terpineol, for which methylene chloride was used. The tested compounds and extracts were applied to filter-paper strips (0.5×2.5 cm, Whatman No.1) in 10 μl of solvent, except as otherwise noted. The filter-paper strips were inserted into Pasteur pipettes (15 cm long). Control puffs of air were applied after each puff of a test stimulus. […]

A further experiment concerns Chrysoperla carnea. Nature of the experiment: Field trapping test in an alfalfa field, C. carnea catches. Conditions: traps baited with 50 mg. Type of experiment: in vivo. As to the method:
(§4) A field trapping test was conducted in an alfalfa field in Ames, Iowa. Synthetic compounds at a dose of 50 mg were prepared in hexane or methylene chloride. Medical peerless cotton rolls (5 cm long, 100% cotton) were used as dispensers, and the traps used were similar to the Rebell Trap (Great Lakes IPM, Mich.). The trap was hung from the bent end of an electric farm post, 1.2 m above the ground. Within a replicate (N=3), traps were set at least 10 m apart. The traps were checked daily, and trap position within a series was randomized to minimize the effects of habitat heterogenity.

The next experiment deals with Coleomegilla maculata. Nature of the experiment: Field trapping test in an alfalfa field, C. maculata catches. Format: in vivo. Conditions: traps baited with 50 mg. As to the method:
as §4

Experiment [2] deals with antennae of Chrysoperla carnea. Nature of the experiment: Electroantennogram (EAG) responses of Chrysoperla carnea antennae. To be noted: for EAG response: C. carnea antennae. How it is done:
as §1, §2, §3
EAG recordings were made by connecting an electrogel-filled (Spectro 360, Parker Laboratory, New Jersey) glass-pipette Ag/AgCl electrode to the head of an excised beetle or lacewing. A recording electrode filled with the same electrogel connected to a high-impedance DC amplifier with automatic baseline drift compensation, was placed in contact with the tip of their antennae (intact). Antennal responses to various chemical stimuli were first recorded for a series of commercial synthetic compounds representing known corn leaf volatiles. Then, male and female body extracts of C. maculata, reflex bleeding extracts, aphid alarm pheromone and catnip extracts were tested. A second series of EAG tests was then conducted including dose-response series using selected EAG-active compounds from the first test. Serial dilutions of the tested compounds were made in redistilled HPLC-grade hexane at dosages ranging from 0.1 μg to 1000 μg, except α-terpineol, for which methylene chloride was used. The tested compounds and extracts were applied to filter-paper strips (0.5×2.5 cm, Whatman No.1) in 10 μl of solvent, except as otherwise noted. The filter-paper strips were inserted into Pasteur pipettes (15 cm long). Control puffs of air were applied after each puff of a test stimulus. The response to the air puff was used to normalize beetle or lacewing responses relative to the tested stimuli. The average EAG response to the air puff from antennae of C. maculata and C. carnea was 0.05±0.003 mV (n=30) and 0.02±0.001 mV (n=27), respectively. The relative EAG response of each stimulus was normalized by dividing the amplitude of the test stimulus by the mean of the response to the control puff. The sequence of exposure of each stimulus to each antenna was randomly defined.

Another experiment deals with C. cognata. To be noted: Boo et al. 1998; cited from earlier work.
A further experiment relates to Harmonia axyridis. Conditions: behavioral test; cited from earlier work.
For experiment [3], the system named is Coccinella septempunctata. Conditions: Nakamuta 1991; cited from earlier work.
The next experiment has as its system Hippodamia convergens. To be noted: behavioral test; cited from earlier work.
Another experiment has as its system C. carnea. To be noted: earlier study, Flint et al. 1979; cited from earlier work.

Turning to `C=CC(O)CCCCC` (stereo not shown) [1-octen-3-ol, 1-Octen-3-ol], the EAG response entry in [1] is “EAG responses”. Also, the “difference in EAG response between male and female antennae” value in experiment [1] (C. maculata, male relative to female) is recorded as “significantly higher EAG response; also recorded: Sexual differences”.

As for `OCCc1ccccc1` [2-phenylethanol, 2-Phenylethanol], the “trap catches / attraction of C. carnea in field test” value with Chrysoperla carnea is listed as “significantly attracted; also recorded: highly attractive”. Further, in experiment [1], the EAG response entry is recorded as “significantly higher; also recorded: highest EAG responses” and the dose eliciting significant EAG responses from female antennae was determined as 10 µg. Also, the “trap catches / attraction of C. maculata in field test” value in the experiment on Coleomegilla maculata is given as “significantly attracted; also recorded: highly attractive”. Moreover, the EAG response entry in experiment [2] (both sexes) was “significant response; also recorded: highly sensitive; also recorded: most strongly”. The “dosage eliciting significant EAG responses” value in experiment [2] (C. carnea, antennae of both sexes) came to 10 µg.

As for `CC1=CO[C@@H](O)[C@H]2[C@@H]1CC[C@@H]2C` [(1R,4aS,7S,7aR)-nepetalactol, reference compound], the EAG response result in experiment [1] is “responded; also recorded: significant EAG responses”. Further, in [1] (C. maculata), the “dose at which EAG saturation occurred” value was 100 µg and the “minimum dose for a significant EAG response” value worked out at 100 µg. The EAG response entry in [2] (both sexes) is “responded; also recorded: significant EAG responses”.

Consider `CC1=COC(=O)[C@H]2[C@@H]1CC[C@@H]2C` [(4aS,7S,7aR)-nepetalactone, reference compound], for which, in experiment [1], the EAG response entry is reported as “responded; also recorded: relatively higher EAG response; also recorded: significant EAG responses” and the “EAG response threshold of female antennae” value (shortened to “EAG response threshold”) is reported as “higher thresholds”. In addition, in experiment [1] (C. maculata), the “dose at which EAG saturation occurred” value is 100 µg and the “minimum dose for a significant EAG response” value is 100 µg. Also, the “attraction of adult C. cognata in the field” value in the experiment with C. cognata was “attracted”. Moreover, in [2] (both sexes), the EAG response result was “responded; also recorded: significant EAG responses”. In [2] (C. carnea female antennae), the “EAG response of female antennae” value was “greater”.

Take `C=CC(=C)CC/C=C(\C)CCC=C(C)C` [(E)-β-farnesene, (E)-β-Farnesene]: in the experiment with Harmonia axyridis, the “attraction of Harmonia axyridis” value is “attracted”. Moreover, the EAG response result in [1] is on record as “significantly higher; also recorded: highest EAG responses”. In experiment [1] (C. maculata male antennae), the “EAG response of male antennae” value was “as high as those in response to aphid sex pheromone” and the “dose at which EAG of male antennae reached saturation” value was found to be 100 µg. Also, the “searching behaviors of Coccinella septempunctata” value in experiment [3] was “does not elicit searching behaviors”. Further, the “trap catches / attraction of C. maculata in field test” value in the experiment on Coleomegilla maculata is listed as “no differences in catches”. In addition, the EAG response result in experiment [2] (both sexes) is given as “significant response; also recorded: increased with increasing doses; also recorded: highly sensitive; also recorded: most strongly”. In [2] (C. carnea, both sexes, dose-response), the “dose of highest EAG response” value turned out to be 1000 µg. In addition, in the experiment with Hippodamia convergens, the “attraction of Hippodamia convergens” value is given as “attracted”.

Take `CC/C=C\CCO` [(Z)-3-hexenol, (Z)-Hexenol]: in experiment [1], the EAG response entry is reported as “EAG responses” and the “EAG response threshold” value is recorded as “higher thresholds”. For the same molecule, in experiment [2] (both sexes), the EAG response result was “relatively lower EAG responses”.

Take `CCCCCCO` [hexanol, 1-Hexanol]: the EAG response result in experiment [1] was “EAG responses”.

`CC1=CCC(C(C)(C)O)CC1` (stereo not drawn) [α-terpineol, α-Terpineol]: in [1], the EAG response entry is “significantly higher; also recorded: highest EAG responses”, the “EAG response threshold” value is recorded as “higher thresholds” and the dose eliciting significant EAG responses from female antennae was found to be 10 µg. The “dose at which EAG of male antennae reached saturation” value in experiment [1] (C. maculata male antennae) is 100 µg. Further, the “trap catches / attraction of C. maculata in field test” value in the experiment with Coleomegilla maculata is on record as “Significant catches”. In addition, the “trap catches / attraction of C. maculata in field test” value in the experiment on Coleomegilla maculata (listed as a-terpineol) was “attracted”. Also, in experiment [2] (both sexes), the EAG response result is reported as “relatively lower EAG responses”.

Consider `C=C1CC/C=C(\C)CC[C@@H]2[C@@H]1CC2(C)C` [β-caryophyllene, β-Caryophyllene], for which the “trap catches / attraction of C. carnea in field test” value in the experiment with Chrysoperla carnea is “low catches”. Further, the “attraction of adults of C. carnea in the field” value in the experiment on C. carnea was “acts as an attractant”. Further, the EAG response entry was “highest EAG responses” in experiment [1] and “relatively low EAG response” in [2] (both sexes).
